Data published in US10617735B2, “Methods and compositions for preserving retinal ganglion cells” (Massachusetts Eye and Ear Infirmary, priority 2010, dated 2020).
Where a SMILES comes first, the peptide text is derived from it. The star is where a group is joined. Cbz = O=C(OCc1ccccc1)*; CH2F = FC*

Tested on: LC3-II
Assay: LC3 protein level after ON injury (western blot)
Type: in vivo, mouse
Conditions: one day after ON injury
Experimental: For Western blot analysis, whole retinas were harvested and lysed for 30 min on ice in lysis buffer (50 mM Tris-HCl [pH 8], with 120 mM NaCl and 1% Nonidet P-40), supplemented with a mixture of proteinase inhibitors (Complete Mini; Roche Diagnostics, Basel, Switzerland). Thirty micrograms of protein per sample were separated in a 4-20% gradient sodium dodecyl sulfate-polyacrylamide gel (SDS-PAGE) (Invitrogen Corporation, Carlsbad, Calif., USA) electrophoresis and the proteins were electroblotted onto PVDF membranes. After 20 min incubation in blocking solution (Starting Block™ T20, Thermo Scientific, Waltham, Mass.), membranes were incubated with primary antibodies overnight at 4° C. Peroxidase-labeled secondary antibodies (Amersham Pharmacia Biotech, Piscataway, N.J., USA) were used and proteins were visualized with enhanced chemiluminescence technique (Amersham Pharmacia Biotech). Full list of primary antibodies and working concentrations are shown below in Table 2.
Protein levels of LC3, an autophagy marker, were also assessed by western blot analysis.

SMILES: COC(=O)CC(NC(=O)C(C)NC(=O)C(NC(=O)OCc1ccccc1)C(C)C)C(=O)CF (stereo not drawn) [Z-VAD, Benzyloxycarbonyl-Val-Ala-Asp(OMe)-fluoromethylketone] (Cbz-Val-Ala-Asp(OMe)-CH2F; configuration not given here)
- protein level of LC3-II: increased more than vehicle
